Results published in US8653048B2 (Sanlugen Pharmatech Ltd., priority 2009, dated 2014).
pIC50: −log10 of the molar value.

Columns and labels:
[1] = system: NCI-H460: a human lung cancer cell line; experiment: MTT analytical method, NCI-H460 cells; assay type: cell-based; conditions: 72 h
Text: (§1) MTT analytical method was used to test the prodrugs for various tumor cells.
(§2) • 1) Cell lines: NCI-H460, A549, LOVO, HT-29, MDA-MB-231, SGC7901, HepG2 or BEL-7402 cell lines. Culture: adherent culturing in D-MEM (Hyclone, Inc.) containing 10% fetal calf serum. The initial cell concentration was about 3×10^5 /mL. The cell was passaged by 1:3 dilution in every 2-3 days. On the day before the test, the cell was passaged by 1:2 dilution, the cell concentration for the test was 5-10×10^5 /mL. • 2) Dissolution and dilution of compounds: according to the weight and molecular weight of the drugs provided, 100-200 μL of DMSO was added. Then normal saline was added to make the final diluted concentration of the drugs be 5 mM (Note that the final concentration of DMSO should not be more than 10%). • 3) D-MEM or RPMI 1640 cell culture medium, Gibco, Inc. • 4) Fetal calf serum Hyclone, Inc. • 5) Cell dissociation buffer, 0.25% Trypsin+0.02% EDTA. • 6) MTT solution, MTT Powder (Sigma) were dissolved in PBS buffer solution to make a solution of 5 mg/mL. The solution was filtered by a 0.22 μm micropore membrane and stored at −20° C. • 7) PBS buffer solution. • 8) 10% acidified SDS, 0.01N HCl. • 9) Centrifuge tubes, haustorial tubes etc. (BD, Inc.); 96-well plates (Costatr, Inc.) Procedures: • 1) Cell inoculation: Cells grown for 24 hours after passage, which cells were in good growth state, were used. The cells were harvested by the routine method. The cell concentration was adjust with a fresh culture solution to 2×10^5/mL (for adherent cells)-3×10^5/mL (for suspension cells). The adherent cells were inoculated at 100 μL/well and then cultivated in an incubator with 5% CO2 at 37° C. for 24 h. Thereafter the used culture solution was removed and 95 μL/well of fresh culture solution was added. The suspension cells were inoculated at 95 μL/well directly. • 2) Drugs treatment: 9 concentration grades were designed for every drug, and every concentration had 3 wells. The control group had 5 wells. The control group was tested simultaneously in each test. The final concentrations of a drug added were […], and 5 μL normal saline was added to the control group. • 3) Cell culture and detection: the cells were cultured in an incubator with 5% CO2 at 37° C. for 72 h after the drug was added, then 10 μL MTT was added to each well and the culture was continued for 4 h. 100 μL of 10% SDS (containing 0.01N HCl) was added to each well. After 24 h, the absorbance (A) of each well was determined by Bio-rad 680 ELISA with the detection wavelength of 570 nm and the reference wavelength of 630 nm. Calculation:
(§3) First, the absorbance (A) of each well was averaged (removing any data with big difference). […] A0 was the mean absorbance of the control wells. The effect curve of the drug concentration was drawn using EXCEL software and the drug concentration for 50% cell survival was calculated according to an appropriate computing methods.

[2] = system: HT29: a human colon cancer cell line; experiment: MTT analytical method, HT29 cells; assay type: cell-based; conditions: HT-29, 72 h
Text: as §1, §2, §3

[3] = system: LOVO: a human colon cancer cell line; experiment: MTT analytical method, LOVO cells; assay type: cell-based; conditions: 72 h
Text: as §1, §2, §3

[4] = system: Bel7402: a human liver cancer cell line; experiment: MTT analytical method, Bel7402 cells; assay type: cell-based; conditions: Bel-7402, 72 h
Text: as §1, §2, §3

[5] = system: HepG2: a human liver cancer cell line; experiment: MTT analytical method, HepG2 cells; assay type: cell-based; conditions: 72 h
Text: as §1, §2, §3

[6] = system: SGC7901: a human gastric cancer line; experiment: MTT analytical method, SGC7901 cells; assay type: cell-based; conditions: SGC-7901, 72 h
Text: as §1, §2, §3

[7] = system: MDA-MB-231: a human breast cancer line; experiment: MTT analytical method, MDA-MB-231 cells; assay type: cell-based; conditions: MDA-MB-231, MTT, 72 h
Text: as §1, §2, §3

[8] = system: A549: a human lung cancer cell line; experiment: MTT analytical method, A549 cells; assay type: cell-based; conditions: 72 h
Text: as §1, §2, §3

Hepatocellular Carcinoma = conditions: patients, liver cancer treatment; cited from earlier work

| pIC50 [1] | pIC50 [2] | pIC50 [3] | pIC50 [4] | pIC50 [5] | pIC50 [6] | pIC50 [7] | pIC50 [8] | Compound | fatal rate of complication (Hepatocellular Carcinoma) |
| --- | --- | --- | --- | --- | --- | --- | --- | --- | --- |
| > 5.70 | 4.52 | 6.00 | 4.80 | 5.40 | < 4.80 | < 4.80 |  | CCCCCCCCCCCOC(=O)c1nccnc1C(=O)Nc1ccn([C@@H]2O[C@H](CO)[C@@H](O)C2(F)F)c(=O)n1 [Compound 5, Undecyl-3-((1-((2R,4R,5R)-3,3-difluoro-4-hydroxy-5-(hydroxymethyl)-tetrahydrofuran-2-yl)-2-oxo-1,2-dihydropyrimidin-4-yl)carbamoyl)pyrazine-2-carboxylate] |  |
| > 5.70 | 5.22 | 4.85 | 4.64 | 5.15 | < 4.80 | < 4.80 | 5.40 | CCCCCCCCCCCCOC(=O)c1ccc(C(=O)Nc2ccn([C@@H]3O[C@H](CO)[C@@H](O)C3(F)F)c(=O)n2)nc1 [Compound 8, Dodecyl-6-((1-((2R,4R,5R)-3,3-difluoro-4-hydroxy-5-(hydroxymethyl)-tetrahydrofuran-2-yl)-2-oxo-1,2-dihydropyrimidin-4-yl)carbamoyl)nicotinate] |  |
| > 5.70 | 5.52 | 5.30 | 4.89 | 5.22 | < 4.80 | < 4.80 | 5.40 | CCCCCCCCCCCCOC(=O)c1ccc(C(=O)Nc2ccn([C@@H]3O[C@H](CO)[C@@H](O)C3(F)F)c(=O)n2)cn1 [Compound 9, Dodecyl-5-((1-((2R,4R,5R)-3,3-difluoro-4-hydroxy-5-(hydroxymethyl)-tetrahydrofuran-2-yl)-2-oxo-1,2-dihydropyrimidin-4-yl)carbamoyl)picolinate] |  |
| > 6.00 | > 5.70 | 4.80 | 5.40 | 5.40 | < 4.80 | 4.96 | 5.52 | CCCCCCCCCCCOC(=O)c1ncccc1C(=O)Nc1ccn([C@@H]2O[C@H](CO)[C@@H](O)C2(F)F)c(=O)n1 [Compound 15, Undecyl-3-((1-((2R,4R,5R)-3,3-difluoro-4-hydroxy-5-(hydroxymethyl)-tetrahydrofuran-2-yl)-2-oxo-1,2-dihydropyrimidin-4-yl)carbamoyl)picolinate] |  |
|  | 4.52 |  | 4.80 |  |  |  | 5.10 | CCCCCCCCCCCOC(=O)c1ccncc1C(=O)Nc1ccn([C@@H]2O[C@H](CO)[C@@H](O)C2(F)F)c(=O)n1 [Compound 22, Undecyl-3-((1-((2R,4R,5R)-3,3-difluoro-4-hydroxy-5-(hydroxymethyl)-tetrahydrofuran-2-yl)-2-oxo-1,2-dihydropyrimidin-4-yl)carbamoyl)isonicotinate] |  |
|  | 5.10 |  | 4.80 |  |  |  | 5.10 | CCCCCCCCCCCCOC(=O)c1ccncc1C(=O)Nc1ccn([C@@H]2O[C@H](CO)[C@@H](O)C2(F)F)c(=O)n1 [Compound 24, Dodecyl-3-((1-((2R,4R,5R)-3,3-difluoro-4-hydroxy-5-(hydroxymethyl)-tetrahydrofuran-2-yl)-2-oxo-1,2-dihydropyrimidin-4-yl)carbamoyl)isonicotinate] |  |
| > 6.00 | 5.70 | 4.80 | 5.10 | 5.70 | < 4.80 | 5.22 | 5.52 | CCCCCCCCCCCCOC(=O)c1ccnc(C(=O)Nc2ccn([C@@H]3O[C@H](CO)[C@@H](O)C3(F)F)c(=O)n2)c1 [Compound 26, Dodecyl-2-((1-((2R,4R,5R)-3,3-difluoro-4-hydroxy-5-(hydroxymethyl)-tetrahydrofuran-2-yl)-2-oxo-1,2-dihydropyrimidin-4-yl)carbamoyl)isonicotinate] |  |
| > 6.00 | > 5.70 | 5.70 | 5.40 | 6.00 | < 4.80 | > 6.00 | 5.40 | CCCCCCCCCCCCOC(=O)c1cc(C(=O)Nc2ccn([C@@H]3O[C@H](CO)[C@@H](O)C3(F)F)c(=O)n2)ccn1 [Compound 27, Dodecyl-4-((1-((2R,4R,5R)-3,3-difluoro-4-hydroxy-5-(hydroxymethyl)-tetrahydrofuran-2-yl)-2-oxo-1,2-dihydropyrimidin-4-yl)carbamoyl)picolinate] |  |
|  | 5.70 |  | 5.10 |  |  |  | 5.10 | CCCCCCCCCCCOC(=O)c1ccnc(C(=O)Nc2ccn([C@@H]3O[C@H](CO)[C@@H](O)C3(F)F)c(=O)n2)c1 [Compound 28, Undecyl-2-((1-((2R,4R,5R)-3,3-difluoro-4-hydroxy-5-(hydroxymethyl)-tetrahydrofuran-2-yl)-2-oxo-1,2-dihydropyrimidin-4-yl)carbamoyl)isonicotinate] |  |
|  | > 5.70 |  | 5.10 |  |  |  | 5.52 | CCCCCCCCCCCOC(=O)c1cc(C(=O)Nc2ccn([C@@H]3O[C@H](CO)[C@@H](O)C3(F)F)c(=O)n2)ccn1 [Compound 29, Undecyl-4-((1-((2R,4R,5R)-3,3-difluoro-4-hydroxy-5-(hydroxymethyl)-tetrahydrofuran-2-yl)-2-oxo-1,2-dihydropyrimidin-4-yl)carbamoyl)picolinate] |  |
|  | 5.40 |  | 4.80 |  |  |  | 4.85 | CCCCCCCCCCCOC(=O)c1cc(C(=O)Nc2ccn([C@@H]3O[C@H](CO)[C@@H](O)C3(F)F)c(=O)n2)[nH]n1 [Compound 30, Undecyl-5-((1-((2R,4R,5R)-3,3-difluoro-4-hydroxy-5-(hydroxymethyl)-tetrahydrofuran-2-yl)-2-oxo-1,2-dihydropyrimidin-4-yl)carbamoyl)-1H-pyrazole-3-carboxylate] |  |
|  | 5.15 |  | 4.52 |  |  |  | 4.68 | CCCCCCCCCCCCOC(=O)c1cc(C(=O)Nc2ccn([C@@H]3O[C@H](CO)[C@@H](O)C3(F)F)c(=O)n2)[nH]n1 [Compound 31, Dodecyl-5-((1-((2R,4R,5R)-3,3-difluoro-4-hydroxy-5-(hydroxymethyl)-tetrahydrofuran-2-yl)-2-oxo-1,2-dihydropyrimidin-4-yl)carbamoyl)-1H-pyrazole-3-carboxylate] |  |
|  |  |  |  |  |  |  |  | COc1cccc2c1C(=O)c1c(O)c3c(c(O)c1C2=O)C[C@@](O)(C(=O)CO)C[C@@H]3O[C@H]1C[C@H](N)[C@H](O)[C@H](C)O1 [Doxorubicin] | ~25% |
